Experimental data taken from patent US20240342292A1, “Compounds for the Degradation of EGFR Kinase” (BeiGene Switzerland GmbH, priority 2021, published 2024).

Tests used:
Del19/T790M/C797S EGFR = test: EGFR degradation HTRF assay in H1975-clone #28 (DTC) cells; assay type: cell-based; conditions: H1975 # 28 DTC (Del19/T790M/C797S), 16h treatment; for DC50: HTRF; for Dmax (%): maximum percentage of degradation
Summary of the method: (§1)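 H1975 clones with endogenous EGFR knocked out and lentivirally expressed mutant EGFR treated 16 h at 37 °C with compounds, 8 doses from 10 uM, 5-fold dilutions, 0.2% DMSO. Lysates read by HTRF (665/620 nm) overnight; DC50 from four-parameter fit.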

L858R/T790M/C797S EGFR = target: T1, L858R/T790M/C797S EGFR (Homo sapiens, UniProt P00533, C797S/L858R/T790M); test: EGFR degradation HTRF assay in H1975-clone #25 (LTC) cells; assay type: cell-based; conditions: 16h treatment; for DC50: H1975 # 25-LTC (L858R/T790M/C797S), HTRF; for Dmax: NCI-H1975, H1975 # 25-LTC (L858R/T790M/C797S), maximum percentage of degradation
T1 construct: expressed in transfected cells; host or cells: H1975 clone #25 (lentiviral over-expression, endogenous EGFR knocked out by sgRNA)
T1 sequence (P00533 25-1210 T790M/C797S/L858R): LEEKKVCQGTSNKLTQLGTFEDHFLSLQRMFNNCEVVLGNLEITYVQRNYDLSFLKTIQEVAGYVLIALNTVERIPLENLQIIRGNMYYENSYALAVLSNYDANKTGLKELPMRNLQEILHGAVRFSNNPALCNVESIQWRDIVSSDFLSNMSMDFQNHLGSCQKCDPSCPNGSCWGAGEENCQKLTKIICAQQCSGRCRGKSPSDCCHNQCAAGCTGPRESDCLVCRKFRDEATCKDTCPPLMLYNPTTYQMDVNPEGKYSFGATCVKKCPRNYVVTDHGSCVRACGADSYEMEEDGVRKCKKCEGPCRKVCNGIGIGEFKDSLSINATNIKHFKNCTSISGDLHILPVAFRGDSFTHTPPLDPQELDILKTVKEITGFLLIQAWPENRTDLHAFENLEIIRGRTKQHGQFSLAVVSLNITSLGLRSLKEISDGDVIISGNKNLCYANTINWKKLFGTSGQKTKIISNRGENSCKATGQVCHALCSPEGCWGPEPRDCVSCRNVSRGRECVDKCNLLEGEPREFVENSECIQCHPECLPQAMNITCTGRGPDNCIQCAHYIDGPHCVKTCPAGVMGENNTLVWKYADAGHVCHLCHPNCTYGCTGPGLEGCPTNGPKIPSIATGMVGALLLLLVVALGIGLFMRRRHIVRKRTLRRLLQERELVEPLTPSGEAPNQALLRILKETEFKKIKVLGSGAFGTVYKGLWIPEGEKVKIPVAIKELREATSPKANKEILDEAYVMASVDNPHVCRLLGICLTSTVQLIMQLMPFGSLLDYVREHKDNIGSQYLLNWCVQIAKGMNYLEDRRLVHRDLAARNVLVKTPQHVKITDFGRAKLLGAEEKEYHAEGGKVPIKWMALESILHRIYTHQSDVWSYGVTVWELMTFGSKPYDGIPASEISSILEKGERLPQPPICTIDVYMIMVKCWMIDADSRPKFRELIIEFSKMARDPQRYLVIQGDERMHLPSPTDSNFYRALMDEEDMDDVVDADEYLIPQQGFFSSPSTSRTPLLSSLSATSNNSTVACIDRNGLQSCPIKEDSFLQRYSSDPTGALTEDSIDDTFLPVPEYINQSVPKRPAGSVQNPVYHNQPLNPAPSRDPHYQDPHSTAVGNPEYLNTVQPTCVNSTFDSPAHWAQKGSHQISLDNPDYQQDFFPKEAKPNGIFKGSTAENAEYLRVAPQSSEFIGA
Summary of the method: as §1

| DC50 (Del19/T790M/C797S EGFR) | DC50 (L858R/T790M/C797S EGFR) | Dmax (L858R/T790M/C797S EGFR) | Compound | Dmax (%) (Del19/T790M/C797S EGFR) |
| --- | --- | --- | --- | --- |
| 0.633 nM | 0.544 nM | 94% | Cc1cc2cc(n1)-c1cnn(C)c1OCCC[C@@H](C)CN1/C(=N/C2=O)Nc2ccc(C(=O)N[C@@H]3CCN(CCc4cc(F)c([C@H]5CCC(=O)NC5=O)c(F)c4)CC3(F)F)cc21 [Example 260, (R,E)-N—((R)-1-(4-((R)-2,6-dioxopiperidin-3-yl)-3,5-difluorophenethyl)-3,3-difluoropiperidin-4-yl)-1,2^6,7-trimethyl-3-oxo-5^2,5^3-dihydro-1^1H,5^1H-11-oxa-4-aza-5(2,1)-benzo[d]imidazola-2(2,4)-pyridina-1(4,5)-pyrazolacycloundecaphane-5^6-carboxamide] | 86.51% |
| 0.621 nM | 0.51 nM | 91.8% | Cc1cc2cc(n1)-c1cnn(C)c1OCCC[C@@H](C)CN1/C(=N/C2=O)Nc2ccc(C(=O)N[C@H]3CCN(CCc4cc(F)c([C@H]5CCC(=O)NC5=O)c(F)c4)CC3(C)C)cc21 [Example 261, (R,E)-N—((S)-1-(4-((R)-2,6-dioxopiperidin-3-yl)-3,5-difluorophenethyl)-3,3-dimethylpiperidin-4-yl)-1^1,2^6,7-trimethyl-3-oxo-5^2,5^3-dihydro-1^1H,5^1H-11-oxa-4-aza-5(2,1)-benzo[d]imidazola-2(2,4)-pyridina-1(4,5)-pyrazolacycloundecaphane-5^6-carboxamide] | 83.61% |
| 0.474 nM | 0.543 nM | 84.2% | Cc1cc2cc(n1)-c1cnn(C)c1OCCC[C@@H](C)CN1/C(=N/C2=O)Nc2ccc(C(=O)N(C)[C@@H]3CCN(CCc4cc(F)c([C@H]5CCC(=O)NC5=O)c(F)c4)CC3(C)C)cc21 [Example 262, (R,E)-N—((R)-1-(4-((R)-2,6-dioxopiperidin-3-yl)-3,5-difluorophenethyl)-3,3-dimethylpiperidin-4-yl)-N,1^1,2^6,7-tetramethyl-3-oxo-5^2,5^3-dihydro-1^1H,5^1H-11-oxa-4-aza-5(2,1)-benzo[d]imidazola-2(2,4)-pyridina-1(4,5)-pyrazolacycloundecaphane-5^6-carboxamide] | 76.44% |
| 0.597 nM | 0.351 nM | 93.6% | Cc1cc2cc(n1)-c1cnn(C)c1OCCC[C@@H](C)CN1/C(=N/C2=O)Nc2ccc(C(=O)N[C@@H]3CCN(CCc4cc(F)c([C@H]5CCC(=O)NC5=O)c(F)c4)CC3(C)C)cc21 [Example 263, (R,E)-N—((R)-1-(4-((R)-2,6-dioxopiperidin-3-yl)-3,5-difluorophenethyl)-3,3-dimethylpiperidin-4-yl)-1^1,2^6,7-trimethyl-3-oxo-5^2,5^3-dihydro-1H,5^1H-11-oxa-4-aza-5(2,1)-benzo[d]imidazola-2(2,4)-pyridina-1(4,5)-pyrazolacycloundecaphane-5^6-carboxamide] | 78.67% |
| 0.624 nM | 0.602 nM | 91.7% | Cc1cc2cc(n1)-c1cnn(C)c1OCCC[C@@H](C)CN1/C(=N/C2=O)Nc2ccc(C(=O)N(C)[C@H]3CCN(CCc4cc(F)c([C@H]5CCC(=O)NC5=O)c(F)c4)[C@@H](C)C3)cc21 [Example 267, (R,E)-N—((2S,4S)-1-(4-((R)-2,6-dioxopiperidin-3-yl)-3,5-difluorophenethyl)-2-methylpiperidin-4-yl)-N,1^1,2^6,7-tetramethyl-3-oxo-5^2,5^3-dihydro-1^1H,5^1H-11-oxa-4-aza-5(2,1)-benzo[d]imidazola-2(2,4)-pyridina-1(4,5)-pyrazolacycloundecaphane-5^6-carboxamide] | 76.64% |
| 0.439 nM | 0.53 nM | 89.8% | Cc1cc2cc(n1)-c1cnn(C)c1OCCC[C@@H](C)CN1/C(=N/C2=O)Nc2ccc(C(=O)N(C)[C@@H]3CCN(CCc4cc(F)c([C@H]5CCC(=O)NC5=O)c(F)c4)[C@H](C)C3)cc21 [Example 268, (R,E)-N—((2R,4R)-1-(4-((R)-2,6-dioxopiperidin-3-yl)-3,5-difluorophenethyl)-2-methylpiperidin-4-yl) -N,1^1,2^6,7-tetramethyl-3-oxo-5^2,5^3-dihydro-1^1H,5^1H-li-oxa-4-aza-5(2,1)-benzo[d]imidazola-2(2,4)-pyridina-1(4,5)-pyrazolacycloundecaphane-5^6-carboxamide] | 81.98% |
| 0.638 nM | 0.316 nM | 92.7% | Cc1cc2cc(n1)-c1cnn(C)c1OCCC[C@@H](C)CN1/C(=N/C2=O)Nc2ccc(C(=O)N[C@@H]3CCN(CCc4cc(F)c([C@H]5CCC(=O)NC5=O)c(F)c4)[C@H](C)C3)cc21 [Example 269, (R,E)-N—((2R,4R)-1-(4-((R)-2,6-dioxopiperidin-3-yl)-3,5-difluorophenethyl)-2-methylpiperidin-4-yl)-1^1,2^6,7-trimethyl-3-oxo-5^2,5^3-dihydro-1^1H,5^1H-11-oxa-4-aza-5(2,1)-benzo[d]imidazola-2(2,4)-pyridina-1(4,5)-pyrazolacycloundecaphane-5^6-carboxamide] | 82.6% |

| Compound | DC50 (Del19/T790M/C797S EGFR) | DC50 (L858R/T790M/C797S EGFR) | Dmax (L858R/T790M/C797S EGFR) | Dmax (%) (Del19/T790M/C797S EGFR) |
| --- | --- | --- | --- | --- |
| Cc1cc2cc(n1)-c1cnn(C)c1OCCC[C@@H](C)CN1/C(=N/C2=O)Nc2ccc(C(=O)N[C@@H]3C[C@H]4CC[C@@H](C3)N4CCc3cc(F)c([C@H]4CCC(=O)NC4=O)c(F)c3)cc21 [Example 264, (R,E)-N—((1R,3S,5S)-8-(4-((R)-2,6-dioxopiperidin-3-yl)-3,5-difluorophenethyl)-8-azabicyclo[3.2.1]octan-3-yl)-1^1,2^6,7-trimethyl-3-oxo-5^2,5^3-dihydro-1^1H,5^1H-11-oxa-4-aza-5(2,1)-benzo[d]imidazola-2(2,4)-pyridina-1(4,5)-pyrazolacycloundecaphane-5^6-carboxamide] | 0.677 nM | 0.546 nM | 89.8% | 68.8% |
| Cc1cc2cc(n1)-c1cnn(C)c1OCCC[C@@H](C)CN1/C(=N/C2=O)Nc2ccc(C(=O)N(C)[C@@H]3C[C@H]4CC[C@@H](C3)N4CCc3cc(F)c([C@H]4CCC(=O)NC4=O)c(F)c3)cc21 [Example 265, (R,E)-N—((1R,3S,5S)-8-(4-((R)-2,6-dioxopiperidin-3-yl)-3,5-difluorophenethyl)-8-azabicyclo[3.2.1]octan-3-yl)-N,1^1,2^6,7-tetramethyl-3-oxo-5^2,5^3-dihydro-1^1H,5^1H-11-oxa-4-aza-5(2,1)-benzo[d]imidazola-2(2,4)-pyridina-1(4,5)-pyrazolacycloundecaphane-5^6-carboxamide] | 0.625 nM | 0.246 nM | 90.9% | 79.26% |
| Cc1cc2cc(n1)-c1cnn(C)c1OCCC[C@@H](C)CN1/C(=N/C2=O)Nc2ccc(C(=O)N(C)C3CC4CCCC(C3)N4CCc3cc(F)c([C@H]4CCC(=O)NC4=O)c(F)c3)cc21 (stereo partly drawn) [Example 266, (7R,E)-N-(9-(4-((R)-2,6-dioxopiperidin-3-yl)-3,5-difluorophenethyl)-9-azabicyclo[3.3.1]nonan-3-yl) -N,1^1,2^6,7-tetramethyl-3-oxo-5^2,5^3-dihydro-1^1H,5^1H-11-oxa-4-aza-5(2,1)-benzo[d]imidazola-2(2,4)-pyridina-1(4,5)-pyrazolacycloundecaphane-5^6-carboxamide] | 0.65 nM | 1.51 nM | 81.4% | 75.93% |
